{
  "source": "patent US11951171B2",
  "about": "“Polypeptide EXP and its drug delivery system as well as extracellular vesicle extraction” (TIANJIN MEDICAL UNIVERSITY, priority 2019, dated 2024)",
  "key": {"C2C12 cells": {"system": "C2C12 cells", "experiment": "Binding stability: intracellular co-localization of peptides with exosomes (confocal microscopy, FRET)", "type": "cell-based, murine", "description": "The intracellular co-localization of CP05 and EXP with exosomes was examined with confocal microscopy at different timepoints. FAM-labeled CP05 and EXP were incubated with DiI-labeled exosomes and then added into C2C12 cells.\nThe meanings of the signs in the figure are as follows: DAPI means staining result for nuclei by DAPI, Peptide(488,520) refers to the excitation and emission wavelength of FAM-labeled CP05 and EXP; EXO(Dil)(540,620) refers to the excitation and emission wavelength for DiI-labeled exosomes; Merge is the superposition of above three staining results; FRET means fluorescence resonance energy transfer. Optical energy resonance transfer is an energy transfer phenomenon between two fluorescent molecules that are very close to each other. When the emission spectrum of the donor fluorescent molecule overlaps with the absorption spectrum of the acceptor fluorescent molecule, and the distance between two molecules is within the range of 10 nm, a […] energy transfer occurs. In the figure, the FAM-Peptide is the donor fluorescent molecule and DiI-EXO is the acceptor fluorescent molecule. […] EXOCP05 is the staining result of exosomes combined with CP05 sequence which is recorded in the prior art Chinese Patent No. CN201510520565.7, and EXOEXP refers to the staining result of the combination of EXP of the present invention and exosomes. […]"}, "[1]": {"system": "exosomes derived from murine myotubes(EXOmyotube), cardiac sphere cells (CDC) (EXOCDC) and human serum (EXOserum)", "experiment": "Binding efficiency with exosomes from different sources (flow cytometry)", "description": "FAM-labeled CP05 or EXP was co-incubated with exosomes derived from murine myotubes(EXOmyotube), cardiac sphere cells (CDC) (EXOCDC) and human serum (EXOserum), and the binding efficiency was detected with flow cytometry. It's shown by the results that the binding efficiency of CP05 to exosomes from different sources is about 70%, and the binding efficiency of the same amount of EXP with exosomes from corresponding sources was about 90%.\nExperimental example 5: Comparison on binding efficiency of EXP and exosomes from different sources. • (1) 0.06 μg FAM-labeled CP05 and 0.06 μg of different peptides were respectively mixed with 10 μg exosome from dC2C12, CDC, serum, and DPBS was used to make up a deficiency to 200 μl. • (2) The mixture was incubated for 2-4 hrs at 4° C. under rotation in vertical shaker. • (3) The binding efficiency was detected with flow cytometry."}, "[2]": {"system": "MVmyo (microvesicles derived from differentiated muscle cells)", "experiment": "Binding efficiency of EXP and CP05 to microvesicles (flow cytometer)", "conditions": "flow cytometer (FIG. 8C)", "description": "(A)Western blot is used to identify and compare the expression of biomarker proteins of MV and exosomes. It's shown by the results that Tetraspanin family proteins like CD81, CD9 and CD63 were expressed in MV, but mitochondrial marker protein Cytochrome C was not expressed. (B) particle size distribution of MV from different sources were detected by Nanosight. MVmyot means microvesicles derived from differentiated muscle cells; MVurine means microvesicles derived from urine. (C) Examination of the binding efficiency of EXP and CP05 to MVmyo was detected by flow cytometer. […] (E)Western blot was used to detect the recovery of dystrophin protein expression after MVEXPPMO treatment. […]"}, "exosomes in serum": {"system": "exosomes in serum", "experiment": "Capture of serum exosomes with His-tagged peptide coated nickel beads", "description": "(A) Nano sight was used to detect the particle size of exosomes in serum captured by CP05 and EXP. It's shown by the results that the particle size of exosomes captured by EXP was about 50 nm, whose homogeneity was higher than that of exosomes recovered by ultra separation. […] It's shown by the results that exosomes captured by EXP has typical bi-layer structure, and the size of exosomes captured by EXP was smaller than that of exosomes recovered by ultrafiltration.(D) Western blot was used to detect the marker protein capturing exosome.\nExperimental example 6: Characterization and functional validation of exosome captured from serum by EXP. • (1) His-tagged EXP and CP05 (100 μg) were respectively mixed with […] beads in 200 μl binding solution at 4° C. for 1 h under rotation. • (2) 1 ml pre-centrifuged serum was added to His-EXP and His-CP05 coated nickel beads (centrifuged at 4400 g for 20 min, followed by 13000 g for 5 min), and then incubated at 4° C. for 30 min; • (3) The serum was discarded and the nonspecific binding was washed with the washing solution for 3 times, 10 min each time. • (4) […] was used to recover extracellular vesicles.\n6.1 Measurement of the size of captured exosomes. • (1) […] of exosomes recovered from elution were diluted into 1 ml of PBS. • (2) Nanosight was used to detect the size distribution of captured exosomes. […]"}},
  "data": [
    {"sequence": "CRHKMWTVKSRL (EXP)", "values": [
      {"measurement": "co-localization with EXO in cells at 48 hours", "setting": "C2C12 cells", "value": "still detectable"},
      {"measurement": "binding efficiency to exosomes from serum compared with CP05", "setting": "[1]; exosomes from serum", "value": "significantly higher than that of CP05"},
      {"measurement": "binding efficiency to exosomes from different sources", "setting": "[1]; same amount of FAM-labeled peptide, EXOmyotube, EXOCDC, EXOserum", "value": "about 90%"},
      {"measurement": "binding efficiency to MVmyot compared with CP05", "setting": "[2]", "value": "significantly higher than that of CP05"},
      {"measurement": "capture efficiency of exosomes in serum", "setting": "exosomes in serum; FIG. 6F", "value": 93.5, "unit": "%"},
      {"measurement": "extraction rate of serum exosomes compared with CP05", "setting": "exosomes in serum; extraction of serum exosomes", "value": "about 2 times"}
    ]}
  ]
}
